Measurements: patent publication US11964990B2, “1,3,4,7-tetrahydro-2H-pyrrolo[3′,2′:5,6]pyrido[2,3-b][1,4]oxazepine bcl-2 inhibitors” (AbbVie Inc., priority 2022, dated 2024)

Tests used:
[1] = test system: RS4;11 cells; test: Cell viability assay (CellTiter-Glo) in RS4;11 cell line; format: cell-based; conditions: 24 hours, 10% Human Serum, 50% decrease in cell viability
Description: (§1) The acute lymphoblastic leukemia (ALL) human cell line RS4;11 (ATCC, Manassas VA) was used as the primary human cell line to assess the cellular activity of compound of the present Examples in vitro and their efficacy in vivo. BH3 profiling, a mitochondrial assay that classifies blocks in the intrinsic apoptotic pathway, has shown that RS4;11 cells were highly dependent on Bcl-2 protein for survival and were sensitive to a Bcl-2 inhibitor (Blood. 2008; 111(4):2300-2309). […] The acute lymphoblastic leukemia cell line Molt-4, which is derived from immature T-lymphoid cells (T-ALL), was used as a counter screen assay.
(§2) Frozen RS4;11 or Molt-4 cells (ATCC, Manassas, VA, USA) were thawed overnight in RPMI 1640 media (Thermo Fisher Scientific, Waltham, MA, USA) supplemented with 1% penicillin/streptomycin (Thermo Fisher Scientific, Waltham, MA, USA), and 10% Human Serum (Sigma, St. Louis, MO, USA). 3000 Cells (0.1×10^6/mL) were seeded in each well of 384-well plate and were treated for 24 hours in a humidified chamber with 5% CO2. Cell viability was determined by CellTiter-Glo as described by the manufacturer's instructions (Promega Corporation, Madison, WI, USA). Responses were determined as a percentage of the control treated cells and the effective concentration (EC50) to induce a 50% decrease in cell viability were determined from sigmoidal dose-response curves using Dotmatics (Dotmatics Software Company, Bishops Stortford, Hertfordshire, England).

[2] = test system: Molt-4 cells; test: Cell viability counter screen assay (CellTiter-Glo) in Molt-4 cells; format: cell-based; conditions: 24 hours, 10% Human Serum, 50% decrease in cell viability
Description: as §1, §2

Row | SMILES | EC50 [1] | EC50 [2]
1 | CC1(C)CC(c2ccc(Cl)cc2)=C2CN3CCN(c4ccc(C(=O)NS(=O)(=O)c5ccc(NCC6CCOCC6)c([N+](=O)[O-])c5)c(N5CCCOc6nc7[nH]ccc7cc65)c4)C[C@H]3COCCCO[C@@H]2C1 [Example 1, 4-((4aS,10aR)-14-(4-chlorophenyl)-12,12-dimethyl-1,2,4a,5,8,9,10a,11,13,15-decahydro-7H,12H-benzo[f]pyrazino[2,1-c][1,8]dioxa[4]azacycloundecin-3(4H)-yl)-2-(3,4-dihydro-2H-pyrrolo[3′,2′:5,6]pyrido[2,3-b][1,4]oxazepin-1(7H)-yl)-N-((3-nitro-4-(((tetrahydro-2H-pyran-4-yl)methyl)amino)phenyl)sulfonyl)benzamide] | 4.01 nM | > 10000 nM
2 | CC1(C)CC(c2ccc(Cl)cc2)=C2CN3CCN(c4ccc(C(=O)NS(=O)(=O)c5ccc(NC[C@H]6CC[C@](C)(O)CO6)c([N+](=O)[O-])c5)c(N5CCCOc6nc7[nH]ccc7cc65)c4)C[C@H]3COCCCO[C@@H]2C1 [Example 2, 4-((4aS,10aR)-14-(4-chlorophenyl)-12,12-dimethyl-1,2,4a,5,8,9,10a,11,13,15-decahydro-7H,12H-benzo[f]pyrazino[2,1-c][1,8]dioxa[4]azacycloundecin-3(4H)-yl)-2-(3,4-dihydro-2H-pyrrolo[3′,2′:5,6]pyrido[2,3-h][1,4]oxazepin-1(7H)-yl)-N-((4-((((2R,5S)-5-hydroxy-5-methyltetrahydro-2H-pyran-2-yl)methyl)amino)-3-nitrophenyl)sulfonyl)benzamide] | 0.651 nM | 1220 nM
3 | CC1(C)CC(c2ccc(Cl)cc2)=C2CN3CCN(c4ccc(C(=O)NS(=O)(=O)c5ccc(NC[C@H]6COCCO6)c([N+](=O)[O-])c5)c(N5CCCOc6nc7[nH]ccc7cc65)c4)C[C@H]3COCCCO[C@@H]2C1 [Example 3, N-((4-((((S)-1,4-dioxan-2-yl)methyl)amino)-3-nitrophenyl)sulfonyl)-4-((4aS,10aR)-14-(4-chlorophenyl)-12,12-dimethyl-1,2,4a,5,8,9,10a,11,13,15-decahydro-7H,12H-benzo[f]pyrazino[2,1-c][1,8]dioxa[4]azacycloundecin-3(4H)-yl)-2-(3,4-dihydro-2H-pyrrolo[3′,2′:5,6]pyrido[2,3-b][1,4]oxazepin-1(7H)-yl)benzamide] | 1.36 nM | 1410 nM
4 | CC1(C)CC(c2ccc(Cl)cc2)=C2CN3CCN(c4ccc(C(=O)NS(=O)(=O)c5cnc(OCC6(F)CCN(C7COC7)CC6)c(Cl)c5)c(N5CCCOc6nc7[nH]ccc7cc65)c4)C[C@H]3COCCCO[C@@H]2C1 [Example 4, N-((5-chloro-6-((4-fluoro-1-(oxetan-3-yl)piperidin-4-yl)methoxy)pyridin-3-yl)sulfonyl)-4-((4aS,10aR)-14-(4-chlorophenyl)-12,12-dimethyl-1,2,4a,5,8,9,10a,11,13,15-decahydro-7H,12H-benzo[f]pyrazino[2,1-c][1,8]dioxa[4]azacycloundecin-3(4H)-yl)-2-(3,4-dihydro-2H-pyrrolo[3′,2′:5,6]pyrido[2,3-b][1,4]oxazepin-1(7H)-yl)benzamide] | 2.35 nM | 2000 nM
5 | CO[C@H]1CC[C@H](CNc2ccc(S(=O)(=O)NC(=O)c3ccc(N4CCN5CC6=C(c7ccc(Cl)cc7)CC(C)(C)C[C@H]6OCCCOC[C@@H]5C4)cc3N3CCCOc4nc5[nH]ccc5cc43)cc2[N+](=O)[O-])CC1 [Example 5, 4-((4aS,10aR)-14-(4-chlorophenyl)-12,12-dimethyl-1,2,4a,5,8,9,10a,11,13,15-decahydro-7H,12H-benzo[f]pyrazino[2,1-c][1,8]dioxa[4]azacycloundecin-3(4H)-yl)-2-(3,4-dihydro-2H-pyrrolo[3′,2′:5,6]pyrido[2,3-b][1,4]oxazepin-1(7H)-yl)-N-((4-((((1r,4r)-4-methoxycyclohexyl)methyl)amino)-3-nitrophenyl)sulfonyl)benzamide] | 7.11 nM | 4460 nM
6 | C[C@@H]1CO[C@@H](CNc2ccc(S(=O)(=O)NC(=O)c3ccc(N4CCN5CC6=C(c7ccc(Cl)cc7)CC(C)(C)C[C@H]6OCCCOC[C@@H]5C4)cc3N3CCCOc4nc5[nH]ccc5cc43)cc2[N+](=O)[O-])CO1 [Example 6, 4-((4aS,10aR)-14-(4-chlorophenyl)-12,12-dimethyl-1,2,4a,5,8,9,10a,11,13,15-decahydro-7H,12H-benzo[f]pyrazino[2,1-c][1,8]dioxa[4]azacycloundecin-3(4H)-yl)-2-(3,4-dihydro-2H-pyrrolo[3′,2′:5,6]pyrido[2,3-b][1,4]oxazepin-1(7H)-yl)-N-((4-((((2S,5R)-5-methyl-1,4-dioxan-2-yl)methyl)amino)-3-nitrophenyl)sulfonyl)benzamide] | 1.55 nM | 1910 nM
7 | CC1(C)CC(c2ccc(Cl)cc2)=C2CN3CCN(c4ccc(C(=O)NS(=O)(=O)c5cnc(OCC6(F)CCOCC6)c(Cl)c5)c(N5CCCOc6nc7[nH]ccc7cc65)c4)C[C@H]3COCCCO[C@@H]2C1 [Example 7, N-((5-chloro-6-((4-fluorotetrahydro-2H-pyran-4-yl)methoxy)pyridin-3-yl)sulfonyl)-4-((4aS,10aR)-14-(4-chlorophenyl)-12,12-dimethyl-1,2,4a,5,8,9,10a,11,13,15-decahydro-7H,12H-benzo[f]pyrazino[2,1-c][1,8]dioxa[4]azacycloundecin-3(4H)-yl)-2-(3,4-dihydro-2H-pyrrolo[3′,2′:5,6]pyrido[2,3-b][1,4]oxazepin-1(7H)-yl)benzamide] | 5.46 nM | > 10000 nM
8 | CC1(C)CC(c2ccc(Cl)cc2)=C2CN3CCN(c4ccc(C(=O)NS(=O)(=O)c5ccc(NC[C@H]6C[C@@](O)(CF)C6)c([N+](=O)[O-])c5)c(N5CCCOc6nc7[nH]ccc7cc65)c4)C[C@H]3COCCCO[C@@H]2C1 [Example 8, 4-((4aS,10aR)-14-(4-chlorophenyl)-12,12-dimethyl-1,2,4a,5,8,9,10a,11,13,15-decahydro-7H,12H-benzo[f]pyrazino[2,1-c][1,8]dioxa[4]azacycloundecin-3(4H)-yl)-2-(3,4-dihydro-2H-pyrrolo[3′,2′:5,6]pyrido[2,3-b][1,4]oxazepin-1(7H)-yl)-N-((4-((((1r,3r)-3-(fluoromethyl)-3-hydroxycyclobutyl)methyl)amino)-3-nitrophenyl)sulfonyl)benzamide] | 3.61 nM | 7480 nM
9 | CC1(C)CC(c2ccc(Cl)cc2)=C2CN3CCN(c4ccc(C(=O)NS(=O)(=O)c5ccc(OCC6(F)CCN(C7COC7)CC6)c(Cl)c5)c(N5CCCOc6nc7[nH]ccc7cc65)c4)C[C@H]3COCCCO[C@@H]2C1 [Example 9, N-(3-chloro-4-{[4-fluoro-1-(oxetan-3-yl)piperidin-4-yl]methoxy}benzene-1-sulfonyl)-4-[(4aS,10aR)-14-(4-chlorophenyl)-12,12-dimethyl-1,2,4a,5,8,9,11,12,13,15-decahydro-7H,10aH-pyrazino[2,1-g][1,5,8]benzodioxazacycloundecin-3(4H)-yl]-2-(3,4-dihydro-2H-pyrrolo[3′,2′:5,6]pyrido[2,3-b][1,4]oxazepin-1(7H)-yl)benzamide] | 7.96 nM | 5590 nM
10 | CC1(C)CC(c2ccc(Cl)cc2)=C2CN3CCN(c4ccc(C(=O)NS(=O)(=O)c5cnc(OC[C@]6(F)CC[C@@H](N7CCOCC7)CC6)c(Cl)c5)c(N5CCCOc6nc7[nH]ccc7cc65)c4)C[C@H]3COCCCO[C@@H]2C1 [Example 10, N-((5-chloro-6-(((1s,4s)-1-fluoro-4-morpholinocyclohexyl)methoxy)pyridin-3-yl)sulfonyl)-4-((4aS,10aR)-14-(4-chlorophenyl)-12,12-dimethyl-1,2,4a,5,8,9,10a,11,13,15-decahydro-7H,12H-benzo[f]pyrazino[2,1-c][1,8]dioxa[4]azacycloundecin-3(4H)-yl)-2-(3,4-dihydro-2H-pyrrolo[3′,2′:5,6]pyrido[2,3-b][1,4]oxazepin-1(7H)-yl)benzamide] | 3.73 nM | 1560 nM
11 | CC1(C)CC(c2ccc(Cl)cc2)=C2CN3CCN(c4ccc(C(=O)NS(=O)(=O)c5cnc(OC[C@]6(F)CC[C@H](N7CCOCC7)CC6)c(Cl)c5)c(N5CCCOc6nc7[nH]ccc7cc65)c4)C[C@H]3COCCCO[C@@H]2C1 [Example 11, N-((5-chloro-6-(((1r,4r)-1-fluoro-4-morpholinocyclohexyl)methoxy)pyridin-3-yl)sulfonyl)-4-((4aS,10aR)-14-(4-chlorophenyl)-12,12-dimethyl-1,2,4a,5,8,9,10a, 11,13,15-decahydro-7H,12H-benzo[f]pyrazino[2,1-c][1,8]dioxa[4]azacycloundecin-3(4H)-yl)-2-(3,4-dihydro-2H-pyrrolo[3′,2′:5,6]pyrido[2,3-b][1,4]oxazepin-1(7H)-yl)benzamide] | 19 nM | 3710 nM
12 | CC1(C)CC(c2ccc(Cl)cc2)=C2CN3CCN(c4ccc(C(=O)NS(=O)(=O)c5ccc(NC[C@H]6CC[C@H](O)CO6)c([N+](=O)[O-])c5)c(N5CCCOc6nc7[nH]ccc7cc65)c4)C[C@H]3COCCCO[C@@H]2C1 [Example 12, 4-((4aS,10aR)-14-(4-chlorophenyl)-12,12-dimethyl-1,2,4a,5,8,9,10a,11,13,15-decahydro-7H,12H-benzo[f]pyrazino[2,1-c][1,8]dioxa[4]azacycloundecin-3(4H)-yl)-2-(3,4-dihydro-2H-pyrrolo[3′,2′:5,6]pyrido[2,3-b][1,4]oxazepin-1(7H)-yl)-N-((4-((((2R,5S)-5-hydroxytetrahydro-2H-pyran-2-yl)methyl)amino)-3-nitrophenyl)sulfonyl)benzamide] | 0.966 nM | 823 nM
